Laboratory results reported in patent publication US20250163057A1, “DCN-1 MODULATING COMPOUNDS AND METHODS OF USE THEREOF” (Cellarity, Inc., priority 2023, published 2025).
Read-outs that look alike come from different tables or passages of the source.

Legend:
DCN1 protein = DCN1 protein (Homo sapiens (Human), UniProt Q96GG9); assay: Intact Protein MS Analysis with the RapidFire-TOF System (covalent adduct formation); type: binding; conditions: MS Emax; 400 nM DCN1, 3 hours at room temperature
Method in brief: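 Tag-cleaved human DCN1 (400 nM) expressed in E. coli, in 25 mM Tris-HCl, 200 mM NaCl, 1 mM DTT, was incubated with 11 compound concentrations for 3 h at room temperature and quenched with 0.2% formic acid. Intact-protein Q-TOF MS with deconvolution detected the compound adduct mass.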

[1] = target: T1, DCN1 (DCUND1) protein PONY domain (Homo sapiens (Human), UniProt Q96GG9); assay: TR-FRET assay, DCN1 binding with FAM-labeled probe
T1 sequence (Q96GG9 60-248): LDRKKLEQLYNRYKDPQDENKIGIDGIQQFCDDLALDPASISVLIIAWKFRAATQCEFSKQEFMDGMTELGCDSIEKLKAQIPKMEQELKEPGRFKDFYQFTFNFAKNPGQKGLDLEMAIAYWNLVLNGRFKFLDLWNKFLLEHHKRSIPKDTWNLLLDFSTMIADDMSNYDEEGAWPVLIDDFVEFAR
Method in brief: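 TR-FRET ratio (Tb-DCN1 to FAM-probe) read at 1, 5 and 24 hrs after compound addition. Protein: recombinant PONY domain from E. coli, biotinylated and coupled to streptavidin terbium. Either 5 nM DCN1 with 20 nM FAM-probe, or 0.31 nM DCN1 with 100 nM FAM-labelled plus 800 nM unlabelled probe.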

[2] = tested on: Cullin-3 (CUL3) neddylation; assay: AlphaLISA assay for Cullin-3 (CUL3) neddylation in TF 1 cells; type: cell-based; conditions: 3 hours treatment
Method in brief: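 TF 1 cells in unsupplemented IMDM treated with compound concentrations for 3 h, then lysed. CUL3 neddylation detected by AlphaLISA (biotinylated anti-NEDD8, anti-CUL3 acceptor beads overnight, streptavidin donor beads 1 h); normalized to vehicle (0%) and 1 μM DI-1548 (100%), IC50 from Hill fits.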

fetal hemoglobin protein = assay: HbF HPLC Cell Culture Assay; type: cell-based; conditions: for EC50: 336 h, HbF induction, Day 14 of culture; for Hemoglobin HPLC Ymax obs (%): relative to a control compound
Procedure: A Cell Culture Assay was performed to evaluate the ability of compounds to induce fetal hemoglobin in a cell culture. The amount fetal hemoglobin protein induced was measured by HPLC.
Cell culture began on Day −4 (thaw day). Thaw buffer was prepared by sterile filtering 6 mL of Human Serum Albumin and 144 mL of PBS to make sterile 1% I/PBS. Cells were removed from liquid nitrogen storage and mostly thawed in a 37° C. water bath. Once the ice in the cryovials was melted, cells were transferred quickly into a 50 mL conical tube. Cryovial was rinsed once with thaw buffer and buffer was transferred over to the conical tube as well. Next, doubling volumes of thaw buffer was added to the conical and gently swirled for ˜30 seconds to one minute (for example: 2 mL was added and swirled, then 4 mL, then 8 mL, and so on) until the volume in the conical is 32 mL. Cells and buffer were centrifuged at 300G for 8 minutes, and the supernatant was aspirated. Another 32 mL of thaw buffer was added slowly, swirling the tube. The tube was again centrifuged at 300G for 8 minutes and the supernatant was aspirated. Cells were counted by resuspending in 1 mL of expansion media and counting with AOPI to determine the concentration of cells/mL.
On day 2, Passage & Treatment Day, each cell culture well was counted. Next fresh CD34 Expansion Media was made which contained StemSpan SFEM, CC100 and TPO all from StemCell technologies. Appropriate volume of cells was collected, centrifuged at 300 g and resuspended in fresh media. Cells were plated in treatment format at a density of 200,000 cells/ml, 25,000 cells/well. Finally, they were treated with test compounds as well as positive and negative controls.
On Days 0, 3 & 5 the same process was carried out. First, each cell culture well was counted. Next Phase 1 Erythroid Differentiation Media was freshly made, which contained StemSpan SFEM, 2.5 U/ml EPO, 0.5 mg/ml Holo-TF, 1× Glutamax, 5 μl/ml chemically defined lipid mixture, 10 ng/ml insulin, 50 ng/ml SCF, 10 ng/ml IL-3. Appropriate volume of cells was collected, centrifuged at 300 g and resuspended in fresh media. Cells should now be in fresh wells at a density of 100,000 cells/ml. 60,000 cells, 60,000 cells and 100,000 cells for days 0, 3, 5 respectively. Finally, fresh compound was added to each well at each timepoint (Days 0, 3 & 5).
On Day 7 media and cell culture density changes. Each cell culture well was counted. Next, Phase 2 Erythroid Differentiation Media was freshly made, which contains StemSpan SFEM, 2.5 U/ml EPO, 0.5 mg/ml Holo-TF, 1× Glutamax, 5 μl/ml chemically defined lipid mixture, 10 ng/ml insulin, 50 ng/ml SCF. Appropriate volume of cells was collected, centrifuged at 300 g and resuspended in fresh media. Cells were plated in fresh wells at a density of 500,000 cells/ml, 300,000 cells/well. Finally, fresh compound was added to each well at Day 7 timepoint.
On Day 10 media formulation is once again changed. Each cell culture well was counted. Fresh Phase 3 Erythroid Differentiation Media was made which contains StemSpan SFEM, 2.5 U/ml EPO, 0.5 mg/ml Holo-TF, 1× Glutamax, 5 μl/ml chemically defined lipid mixture, 10 ng/ml insulin. Appropriate volume of cells was collected, centrifuged at 300 g and resuspended in fresh media. Cells were plated in fresh wells at a density of 500,000 cells/ml, 500,000 cells/well. Finally, fresh compound was added to each well at Day 10 timepoint.
On Day 12 the cell density is once again changed. Each cell culture well was counted. Fresh Phase 3 Erythroid Differentiation Media was made. Appropriate volume of cells was collected, centrifuged at 300 g and resuspended in fresh media. Cells were plated in fresh wells at a density of 1,000,000 cells/ml, 1,000,000 cells/well. Finally fresh compound was added to each well.
Day 14 (18th day of experiment) refers to the terminal day of culture. Each cell culture well was counted. Next between 150K and 650K cells were placed in a uniquely labeled 1.5 ml standard tube. […]

[3] = target: T1, DCN1 (DCUND1) protein PONY domain; assay: Off-rate measurement of reversible covalent molecules (jump dilution TR-FRET with Cy5 probe); type: binding; conditions: for Category: binding mode category from off-rate assay; for residence time: inverse of rate constant K; for residence time / half-life: jump dilution TR-FRET; for koff: jump dilution, Cy5 covalent probe 150 nM, TR-FRET; for half-life: ln(2)/K
Description: A typical covalent compound is assumed to stay bound to a protein for at least the life of that protein in the cell. In reality, there is a range of how long a covalent compounds remains bound before a reverse reaction takes place. Thus, some covalent bonds can be labeled as reversible as their reverse reaction takes place in a measurable amount of time under physiological conditions. The assay capitalizes on the range of covalent binders by using a high affinity covalent binder as a probe to displace the more reversible binders in an adaptation of the jump dilution method.
In this version of the jump dilution method, the increase in covalent probe binding over time was measured through a TR-FRET reaction between the covalent probe and the biotinylated target protein.
The recombinant form of the DCN1 (DCUND1) protein PONY domain was produced using an E. coli expression system at Viva Biotech (China). The DCN1 protein was biotinylated (EZ sulfo-NHS-LC-biotin; Thermofisher) for labeling with streptavidin terbium (Tb) cryptate in the reaction. This biotinylated protein was used in two forms of the TR-FRET assay as described below.
The off-rate measurement is executed in two steps based on the jump dilution method. […] The greatest dilution allowed within the constraints of the assay was chosen. These factors allow a competitive advantage for the covalent probe to replace the test compound when that compound releases from the target protein. The actual measure is the rate of increased TR-FRET signal as the covalent probe replaces the test compound over time. […] The resulting time dependent curve of the TR-FRET signal is fit to the following equation:
Y=Y0+(Plateau−Y0)*(1−exp(−K*x))
K is the rate constant (1/unit of time). The residence time is defined as the inverse of K, the rate constant. The half-life is calculated as ln(2)/K.

[4] = 24 hr after treatment with compound, read-out: TR FRET IC50 24 hr
[5] = read-out: TR FRET IC50 1 hr, 1 hr after treatment with compound
[6] = TR FRET IC50 1 hr (nM), 1 hr after treatment with compound

DCN1 protein, sequence (Q96GG9 whole entry): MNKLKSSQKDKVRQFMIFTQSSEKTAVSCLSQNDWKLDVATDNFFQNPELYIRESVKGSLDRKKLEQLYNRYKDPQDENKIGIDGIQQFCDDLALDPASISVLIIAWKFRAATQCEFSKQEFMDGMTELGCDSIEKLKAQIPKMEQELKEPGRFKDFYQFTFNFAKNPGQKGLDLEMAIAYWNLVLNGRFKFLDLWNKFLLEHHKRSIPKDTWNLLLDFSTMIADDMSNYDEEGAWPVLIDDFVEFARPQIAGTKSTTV

| Compound | % Adduct Formation (DCN1 protein) | IC50 [1, 4] | IC50 [1, 5] | IC50 ([2]; Homo sapiens, TF-1, 3 h) | EC50 (fetal hemoglobin protein) | Hemoglobin HPLC Ymax obs (%) (fetal hemoglobin protein) | IC50 [1, 6] | IC50 [2] | Category [3] | residence time [3] | koff [3] | half-life [3] |
| --- | --- | --- | --- | --- | --- | --- | --- | --- | --- | --- | --- | --- |
| CCN1C(=O)[C@@H](NC(=O)c2cccc(C(F)(F)F)c2)C(c2ccc(F)cc2)c2c(C(=O)N(CC#N)C3COC3)nn(-c3ccccc3)c21 (mixture of isomers) [Compound I-285] | +++ (MS Emax % adduct formation greater than 80.0 and less than or equal to 100.0) | ≤ 200 nM | ≤ 200 nM | ≤ 100 nM | ≤ 50 nM | ++ (Hemoglobin HPLC Ymax greater than 65.0 and less than or equal to 100.0) | – | – | – | – | – | – |
| CCN1C(=O)[C@@H](NC(=O)c2cccc(C(F)(F)F)c2)[C@@H](c2ccc(F)cc2)c2c(C(=O)N(C)CC#N)nn(-c3ccccc3)c21 (racemic) [Compound I-5, rac-(4R,5R)—N-(cyanomethyl)-7-ethyl-4-(4-fluorophenyl)-N-methyl-6-oxo-1-phenyl-5-(3-(trifluoromethyl)benzamido)-4,5,6,7-tetrahydro-1H-pyrazolo[3,4-b]pyridine-3-carboxamide] | +++ (MS Emax % adduct formation greater than 80.0 and less than or equal to 100.0) | ≤ 200 nM | – | ≤ 100 nM | 50 to 200 nM | ++ (Hemoglobin HPLC Ymax greater than 65.0 and less than or equal to 100.0) | ≤ 200 nM | – | – | – | – | – |
| CCN1C(=O)[C@@H](NC(=O)c2cccc(C(F)(F)F)c2)[C@@H](c2ccc(F)cc2)c2c(C(=O)N3CCC[C@H]3C#N)nn(-c3ccccc3)c21 (racemic) [Compound I-34] | – | ≤ 200 nM | – | ≤ 100 nM | > 200 nM | – | ≤ 200 nM | – | – | – | – | – |
| CCN1C(=O)[C@@H](NC(=O)c2cccc(C(F)(F)F)c2)[C@@H](c2ccc(F)cc2)c2c(C(=O)N(C)[C@@H](C#N)CCN(C)C)nn(-c3ccccc3)c21 (relative stereo) [Compound I-304, (4S,5S)—N-[(1R*)-1-cyano-3-(dimethylamino)propyl]-7-ethyl-4-(4-fluorophenyl)-N-methyl-6-oxo-1-phenyl-5-[3-(trifluoromethyl)benzamido]-4H,5H-pyrazolo[3,4-b]pyridine-3-carboxamide] | +++ (MS Emax % adduct formation greater than 80.0 and less than or equal to 100.0) | – | – | – | – | ++ (Hemoglobin HPLC Ymax greater than 65.0 and less than or equal to 100.0) | – | – | – | – | – | – |
| CCN1C(=O)[C@@H](NC(=O)c2cccc(C(F)(F)F)c2)[C@@H](c2ccc(F)cc2)c2c(C(=O)N(C)[C@@H](C#N)C3COC3)nn(-c3ccccc3)c21 (single isomer, unassigned) [Compound I-294] | +++ (MS Emax % adduct formation greater than 80.0 and less than or equal to 100.0) | – | – | – | 50 to 200 nM | ++ (Hemoglobin HPLC Ymax greater than 65.0 and less than or equal to 100.0) | – | ≤ 100 nM | – | – | – | – |
| CCN1C(=O)[C@@H](NC(=O)c2cccc(C(F)(F)F)c2)[C@@H](c2ccc(F)cc2)c2c(C(=O)N(C)[C@@H](C#N)CCN(C)C)nn(-c3ccccc3)c21 (single isomer, unassigned) [Compound I-304, (4S,5S)—N-[(1R*)-1-cyano-3-(dimethylamino)propyl]-7-ethyl-4-(4-fluorophenyl)-N-methyl-6-oxo-1-phenyl-5-[3-(trifluoromethyl)benzamido]-4H,5H-pyrazolo[3,4-b]pyridine-3-carboxamide] | – | – | – | ≤ 100 nM | ≤ 50 nM | – | – | – | – | – | – | – |
| CCN1C(=O)[C@@H](NC(=O)c2cccc(C(F)(F)F)c2)[C@@H](c2ccc(F)cc2)c2c(C(=O)N3CCNC[C@@H]3C#N)nn(-c3ccccc3)c21 [Compound I-281] | – | – | – | – | ≤ 50 nM | ++ (Hemoglobin HPLC Ymax greater than 65.0 and less than or equal to 100.0) | – | – | – | – | – | – |
| CCN1C(=O)[C@@H](NC(=O)c2cccc(C(F)(F)F)c2)[C@@H](C2CC2)c2c(C(=O)N3CCC[C@H]3C#N)nn(C3CCOCC3)c21 [Compound I-348] | ++ (MS Emax % adduct formation greater than 30.0 and less than or equal to 80.0) | ≤ 200 nM | – | ≤ 100 nM | – | – | 200 to 1000 nM | – | slow reversible | – | – | – |
| CCN1C(=O)[C@@H](NC(=O)c2cccc(C(F)(F)F)c2)[C@@H](C2CC2)c2c(C(=O)N3CCOC[C@H]3C#N)nn(C3CCOCC3)c21 [Compound I-381] | +++ (MS Emax % adduct formation greater than 80.0 and less than or equal to 100.0) | ≤ 200 nM | ≤ 200 nM | – | – | – | – | – | reversible covalent | 297 min | 5.62e-05 s⁻¹ | 205.6 min |
| CCN1C(=O)[C@@H](NC(=O)c2cccc(C(F)(F)F)c2)[C@@H](c2ccc(F)cc2)c2c(C(=O)N3CC[C@H]3C#N)nn(C3CCOCC3)c21 [Compound I-384] | + (MS Emax % adduct formation greater than or equal to 0.0 and less than or equal to 30.0) | ≤ 200 nM | ≤ 200 nM | ≤ 100 nM | – | – | – | – | reversible covalent | 184 min | 9.21e-05 s⁻¹ | 127.3 min |
